Laboratory results taken from patent publication US20250101017A1, “SALT CRYSTAL FORM AND FREE BASE CRYSTAL FORM OF KINASE INHIBITOR” (CYTOSINLAB THERAPEUTICS CO., LTD., priority 2022, published 2025).
Like-named read-outs stand apart in the source and are kept apart here.

Key:
Format in all cases: physicochemical
[1] = Competitive pulping of API (free base Form A) and Form B in saturated DCM or water solution at 50° C., XRPD
Procedure: A saturated solution of API (free base Form A) in DCM and water was prepared. Approximately 10 mg of API (free base Form A) and free base crystal form Form B was weighed respectively and added into a 4 ml glass bottle, and 1 mL of the saturated solution was added. […] The resulting solid was subjected to XRPD testing.

[2] = Dynamic moisture adsorption (DVS), hygroscopicity; conditions: DVS; for moisture absorption weight gain: 80% RH humidity
Procedure: DSV pattern determination method: Dynamic moisture adsorption was performed using Intrinsic DVS. In step mode, the sample is subjected to loop testing at a relative humidity of 0-90%. The sample is analyzed at 10% RH. The dm/dt is set to 0.002 to achieve equilibrium between the sample and the room environment.
Approximately 250 mg of API was weighed and added into a 4 ml glass vial, and 2.5 ml of ethyl acetate was added. The mixture was stirred overnight under magnetic stirring at 50° C., cooled to room temperature, and then filtered, and the obtained solid was dried in vacuum overnight in a 50° C. oven. The resulting solid was free base crystal form Form B. The free base crystal form Form B was subjected to various characterization.

[3] = Solid stability of crystal forms (80° C., light exposure, 25° C./60% RH, 40° C./75% RH); purity by liquid chromatography and XRPD of the solids
Procedure: A certain amount of API and malate crystal form VII-A were weighed and added into a liquid phase vial, and a total of 9 parallels were prepared. The 9 parallels were placed separately in 80° C. (open); 25° C., 60% RH (open); 40° C., 75% RH (open); and light stability box closed). The stabilities under conditions of: 80° C. for one day, light exposure for 10 days, as well as 25° C., 60% RH and 40° C., 75% RH for one and two weeks were tested, and the XRPD of the solids were measured.
A certain amount of crystal form B was weighed and added into a liquid phase vial, and a total of 9 parallels were prepared. 9 parallels were placed separately in 80° C.; 25° C., 60% RH, 40° C., 75% RH; and light stability boxe.

[4] = Solubility at 37° C. in buffer solutions with different pH (about 10 mg in 1 ml, 2 h and 24 h); filtrate concentration and pH, XRPD of remaining solid; conditions: thermodynamic from solid, read-out: Solubility at 37° C.
Procedure: Approximately 10 mg of malate crystal form VII-A and free base Form A were weighed separately, and 1 ml of buffer solutions with different pH were added to make the solution supersaturated, and the mixtures were stirred at 37° C. for 2 h and 24 hours. The samples were filtered, and the filtrates were measured to determine the concentration and pH value, and the remaining solid was subjected to XRPD determination. The specific results were as follows: […]

[5] = 25° C., 60% RH, 1 week, listed as API
[6] = 25° C., 60% RH, 2 weeks, listed as API
[7] = 40° C., 75% RH, 1 week, listed as API
[8] = 40° C., 75% RH, 2 weeks, listed as API
[9] = Light control, 10 days, listed as API
[10] = Light exposure, 10 days, listed as API

CCc1nc2c(N)ncc(-c3ccc(N4CCC(N5CCN(CC)CC5)CC4)c(OC)c3)c2nc1NC1CCOCC1 [Free base Form A, 3-ethyl-8-(4-(4-(4-ethylpiperazin-1-yl)piperidin-1-yl)-3-methoxyphenyl)-N2-(tetrahydro-2H-pyran-4-yl) pyridino [3,4-b]pyrazine-2,5-diamine]
solid crystal form obtained by competitive pulping ([1]; API and Form B together in DCM, 50° C., 3 days, XRPD): tended to approach Form L | appearance after competitive pulping ([1]; API and Form B together in DCM, after 5 days of beating): became oily | crystal form obtained by competitive pulping ([1]; API and Form B together in water, 50° C., 3 days, XRPD): a mixture of Form B and API | XRPD results ([1]; competitive pulping of API and Form B, DCM, 50° C., 3 days): Form K | moisture absorption weight gain [2]: 1.05% | moisture absorption weight gain ([2]; listed as API): 11.12% | hygroscopicity [2]: slight hygroscopicity | Degradation (%) ([3]; 25° C., 60% RH (open), 1 week): 0.03% | Purity (%) ([3]; 25° C., 60% RH (open), 1 week): 95.50% | Crystal form ([3]; 25° C., 60% RH (open), 1 week, XRPD): Unchanged | Degradation (%) ([3]; 25° C., 60% RH (open), 2 weeks): 0.04% | Purity (%) ([3]; 25° C., 60% RH (open), 2 weeks): 95.49% | Crystal form ([3]; 25° C., 60% RH (open), 2 weeks, XRPD): Unchanged | Crystal form ([3]; 25° C., 60% RH, 1 week): Unchanged | Degradation [3, 5]: 0.03% | Purity [3, 5]: 95.50% | Crystal form ([3]; 25° C., 60% RH, 2 weeks): Unchanged | Degradation [3, 6]: 0.04% | Purity [3, 6]: 95.49% | Degradation (%) ([3]; 40° C., 75% RH (open), 1 week): 0.04% | Purity (%) ([3]; 40° C., 75% RH (open), 1 week): 95.49% | Crystal form ([3]; 40° C., 75% RH (open), 1 week, XRPD): Unchanged | Degradation (%) ([3]; 40° C., 75% RH (open), 2 weeks): 2.93% | Purity (%) ([3]; 40° C., 75% RH (open), 2 weeks): 92.60% | Crystal form ([3]; 40° C., 75% RH (open), 2 weeks, XRPD): Unchanged | Crystal form ([3]; 40° C., 75% RH, 1 week): Unchanged | Degradation [3, 7]: 0.04% | Purity [3, 7]: 95.49% | Crystal form ([3]; 40° C., 75% RH, 2 weeks): Unchanged | Degradation [3, 8]: 2.93% | Purity [3, 8]: 92.60% | Degradation (%) ([3]; 80° C. (open), 1 day): 0.14% | Purity (%) ([3]; 80° C. (open), 1 day): 95.39% | Crystal form ([3]; 80° C. (open), 1 day, XRPD): changed | Crystal form ([3]; 80° C., 1 day, listed as API): changed | Degradation ([3]; 80° C., 1 day, listed as API): 0.14% | Purity ([3]; 80° C., 1 day, listed as API): 95.39% | Degradation (%) ([3]; Light contral, 10 days): 0.02% | Purity (%) ([3]; Light contral, 10 days): 95.51% | Crystal form ([3]; Light contral, 10 days, XRPD): Unchanged | Crystal form ([3]; Light control, 10 days): Unchanged | Degradation [3, 9]: 0.02% | Purity [3, 9]: 95.51% | Degradation (%) ([3]; Light exposure, 10 days): 7.89% | Purity (%) ([3]; Light exposure, 10 days): 88.14% | Crystal form ([3]; Light exposure, 10 days, XRPD): changed | Crystal form [3, 10]: changed | Degradation [3, 10]: 7.89% | Purity [3, 10]: 88.14% | Purity (%) ([3]; initial): 95.53% | Purity ([3]; initial, listed as API): 95.53% | Degradation ([3]; light exposure and 40° C., 75% RH): varying degrees of degradation | solubility at 2 h ([4]; buffer solution pH 1.2, 37 °C, pH 1.2, simulated gastric fluid, medium pH 1.2, 2 h): > 10000 µg/mL | solubility at 24 h ([4]; buffer solution pH 1.2, 37 °C, pH 1.2, simulated gastric fluid, medium pH 1.2, 24 h): > 10000 µg/mL | solubility at 2 h ([4]; buffer solution pH 3.0, 37 °C, pH 3, aqueous buffer, medium pH 3.0, 2 h): > 10000 µg/mL | solubility at 24 h ([4]; buffer solution pH 3.0, 37 °C, pH 3, aqueous buffer, medium pH 3.0, 24 h): > 10000 µg/mL | solubility at 2 h ([4]; buffer solution pH 4.5, 37 °C, pH 4.5, aqueous buffer, medium pH 4.5, 2 h): > 10000 µg/mL
